Where “and” joins values, the source holds several entries; their conditions need not be identical. Equal entries are not always repeated. Inconclusive results and toxic doses are left out. How the source made its calls: active means survival T/C of 150% or more; inactive means T/C below 125% in these data.
System: P388 leukemia ip, CD2F1 mice, survival T/C
Assay: NCI In Vivo Anticancer Drug Screen. Data for tumor model P388 Leukemia (intraperitoneal) in CD2F1 (CDF1) mice
Conditions: endpoint: median survival time, higher = longer survival
In short: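 Mice carrying the transplanted tumor received test compound or vehicle. Survival was recorded in each group, and the value is the treated-group measurement divided by that of the vehicle-treated control group.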

[1] = dose: 50.0 mg/kg/injection, schedule: Q01DX009 (ip), vehicle: saline
[2] = dose: 100.0 mg/kg/injection, schedule: Q01DX009 (ip), vehicle: saline
[3] = dose: 200.0 mg/kg/injection, schedule: Q01DX009 (ip), vehicle: saline
[4] = dose: 50.0 mg/kg/injection, schedule: Q01DX005 (ip), vehicle: saline with Tween-80
[5] = dose: 100.0 mg/kg/injection, schedule: Q01DX005 (ip), vehicle: saline with Tween-80
[6] = dose: 200.0 mg/kg/injection, schedule: Q01DX005 (ip), vehicle: saline with Tween-80

Measured: T/C

COc1cccc2c1C(=O)c1c(O)c3c(c(O)c1C2=O)CC(O)(C(C)=O)CC3OC1CC(NCC2(O)OCC(O)C(O)C2O)C(O)C(C)O1 (stereo not drawn)
inactive: dose: 3.13 mg/kg/injection, schedule: Q04DX003 (ip), vehicle: water 119 % of control | dose: 6.25 mg/kg/injection, schedule: Q04DX003 (ip), vehicle: water 117 % of control | dose: 12.5 mg/kg/injection, schedule: Q04DX003 (ip), vehicle: water 119 % of control | dose: 25.0 mg/kg/injection, schedule: Q04DX003 (ip), vehicle: water 118 % of control | dose: 200.0 mg/kg/injection, schedule: Q04DX003 (ip), vehicle: water 99 % of control

COc1cc(-c2ccc(Nc3ccccc3C(=O)O)c(OC)c2)ccc1Nc1ccccc1C(=O)O
inactive: [1] 105 % of control | [2] 100 % of control and 104 % of control and 109 % of control | [3] 110 % of control | dose: 400.0 mg/kg/injection, schedule: Q01DX009 (ip), vehicle: saline 117 % of control and 124 % of control and 86 % of control

Cc1cc(=O)[nH]c2[nH][nH]c(=O)c12
inactive: dose: 25.0 mg/kg/injection, schedule: Q01DX009 (ip), vehicle: saline with Tween-80 93 % of control | dose: 50.0 mg/kg/injection, schedule: Q01DX009 (ip), vehicle: saline with Tween-80 93 % of control | dose: 100.0 mg/kg/injection, schedule: Q01DX009 (ip), vehicle: saline with Tween-80 105 % of control | dose: 200.0 mg/kg/injection, schedule: Q01DX009 (ip), vehicle: saline with Tween-80 90 % of control

Cc1c2ccncc2c(CNC(=O)CCC(=O)NCc2c3cnccc3c(C)c3c2c2ccccc2n3C)c2c3ccccc3n(C)c12
inactive: dose: 6.25 mg/kg/injection, schedule: Q04DX002 (ip), vehicle: saline with Tween-80 108 % of control | dose: 12.5 mg/kg/injection, schedule: Q04DX002 (ip), vehicle: saline with Tween-80 103 % of control | dose: 25.0 mg/kg/injection, schedule: Q04DX002 (ip), vehicle: saline with Tween-80 102 % of control | dose: 50.0 mg/kg/injection, schedule: Q04DX002 (ip), vehicle: saline with Tween-80 102 % of control

Cc1cc(NS(=O)(=O)c2ccc(Nc3ccnc4cc(Cl)ccc34)cc2)no1
inactive: [4] 92 % of control | [5] 86 % of control | [6] 92 % of control

OC(Cc1nc2ccccc2s1)c1ccco1 (stereo not drawn)
inactive: dose: 60.0 mg/kg/injection, schedule: Q01DX005 (ip), vehicle: Klucel (hydroxypropylcellulose) (HPC) 101 % of control | dose: 120.0 mg/kg/injection, schedule: Q01DX005 (ip), vehicle: Klucel (hydroxypropylcellulose) (HPC) 103 % of control | dose: 240.0 mg/kg/injection, schedule: Q01DX005 (ip), vehicle: Klucel (hydroxypropylcellulose) (HPC) 103 % of control

COc1ccc2[nH]c(=O)c(Br)c(C)c2c1
inactive: [4] 101 % of control | [5] 95 % of control | [6] 100 % of control

C=C(C)C1CC/C(C)=C/CCC2(C)OC2CC/C(CO)=C\C1O (stereo not drawn)
inactive: dose: 8.0 mg/kg/injection, schedule: Q01DX009 (ip), vehicle: saline with Tween-80 113 % of control | dose: 16.0 mg/kg/injection, schedule: Q01DX009 (ip), vehicle: saline with Tween-80 114 % of control | dose: 32.0 mg/kg/injection, schedule: Q01DX009 (ip), vehicle: saline with Tween-80 110 % of control | dose: 64.0 mg/kg/injection, schedule: Q01DX009 (ip), vehicle: saline with Tween-80 115 % of control

O=C1c2ccccc2NC(O)c2cccn21 (stereo not drawn)
inactive: dose: 0.1 mg/kg/injection, schedule: Q01DX005 (ip), vehicle: water 89 % of control | dose: 0.2 mg/kg/injection, schedule: Q01DX005 (ip), vehicle: water 91 % of control | dose: 0.4 mg/kg/injection, schedule: Q01DX005 (ip), vehicle: water 93 % of control | dose: 0.8 mg/kg/injection, schedule: Q01DX005 (ip), vehicle: water 91 % of control | dose: 1.6 mg/kg/injection, schedule: Q01DX005 (ip), vehicle: water 93 % of control | dose: 5.0 mg/kg/injection, schedule: Q01DX005 (ip), vehicle: distilled water + Tween-80 99 % of control | dose: 10.0 mg/kg/injection, schedule: Q01DX005 (ip), vehicle: distilled water + Tween-80 99 % of control | dose: 20.0 mg/kg/injection, schedule: Q01DX005 (ip), vehicle: distilled water + Tween-80 99 % of control | dose: 40.0 mg/kg/injection, schedule: Q01DX005 (ip), vehicle: distilled water + Tween-80 100 % of control | dose: 80.0 mg/kg/injection, schedule: Q01DX005 (ip), vehicle: distilled water + Tween-80 95 % of control

O=[N+]([O-])c1cccc(N/N=C\c2c(Cl)[nH]c3ccccc23)c1
inactive: dose: 12.5 mg/kg/injection, schedule: Q01DX001 (ip), vehicle: Klucel (hydroxypropylcellulose) (HPC) 102 % of control | dose: 25.0 mg/kg/injection, schedule: Q01DX001 (ip), vehicle: Klucel (hydroxypropylcellulose) (HPC) 93 % of control | dose: 50.0 mg/kg/injection, schedule: Q01DX001 (ip), vehicle: Klucel (hydroxypropylcellulose) (HPC) 89 % of control | dose: 100.0 mg/kg/injection, schedule: Q01DX001 (ip), vehicle: Klucel (hydroxypropylcellulose) (HPC) 86 % of control

COC(=O)NC12CC3CC(C(C)O1)C2N(Cc1ccccc1)C3 (stereo not drawn)
inactive: dose: 25.0 mg/kg/injection, schedule: Q01DX005 (ip), vehicle: Klucel (hydroxypropylcellulose) (HPC) 100 % of control | dose: 50.0 mg/kg/injection, schedule: Q01DX005 (ip), vehicle: Klucel (hydroxypropylcellulose) (HPC) 93 % of control | dose: 100.0 mg/kg/injection, schedule: Q01DX005 (ip), vehicle: Klucel (hydroxypropylcellulose) (HPC) 94 % of control

O=C(NCC1OC(n2cnc3c(=O)[nH]cnc32)C(O)C1O)c1cccc(S(=O)(=O)F)c1 (stereo not drawn)
inactive: dose: 50.0 mg/kg/injection, schedule: Q01DX001 (ip), vehicle: saline with Tween-80 101 % of control | dose: 100.0 mg/kg/injection, schedule: Q01DX001 (ip), vehicle: saline with Tween-80 111 % of control | dose: 200.0 mg/kg/injection, schedule: Q01DX001 (ip), vehicle: saline with Tween-80 100 % of control

c1ccc(Nc2ccncc2)cc1
inactive: dose: 1.56 mg/kg/injection, schedule: Q01DX009 (ip), vehicle: saline 95 % of control | dose: 3.12 mg/kg/injection, schedule: Q01DX009 (ip), vehicle: saline 95 % of control | dose: 6.25 mg/kg/injection, schedule: Q01DX009 (ip), vehicle: saline 100 % of control | dose: 12.5 mg/kg/injection, schedule: Q01DX009 (ip), vehicle: saline 100 % of control | dose: 25.0 mg/kg/injection, schedule: Q04DX003 (ip), vehicle: saline sonified 100 % of control | dose: 50.0 mg/kg/injection, schedule: Q04DX003 (ip), vehicle: saline sonified 90 % of control | dose: 100.0 mg/kg/injection, schedule: Q04DX003 (ip), vehicle: saline sonified 100 % of control

Nc1cc(F)ccc1CC(=O)O
inactive: dose: 60.0 mg/kg/injection, schedule: Q01DX005 (ip), vehicle: saline 103 % of control | dose: 120.0 mg/kg/injection, schedule: Q01DX005 (ip), vehicle: saline 99 % of control | dose: 240.0 mg/kg/injection, schedule: Q01DX005 (ip), vehicle: saline 99 % of control

COc1ccc(-n2c(-c3ccc(-n4c(C)nc5ccc(I)cc5c4=O)cc3)n[nH]c2=S)cc1
inactive: dose: 100.0 mg/kg/injection, schedule: Q04DX002 (ip), vehicle: Klucel (hydroxypropylcellulose) (HPC) 103 % of control | dose: 200.0 mg/kg/injection, schedule: Q04DX002 (ip), vehicle: Klucel (hydroxypropylcellulose) (HPC) 98 % of control | dose: 400.0 mg/kg/injection, schedule: Q04DX002 (ip), vehicle: Klucel (hydroxypropylcellulose) (HPC) 98 % of control

COc1ccc2c3c(cccc13)-c1ccccc1C2=O
inactive: dose: 6.25 mg/kg/injection, schedule: Q01DX005 (ip), vehicle: saline with Tween-80 95 % of control | dose: 12.5 mg/kg/injection, schedule: Q01DX005 (ip), vehicle: saline with Tween-80 91 % of control | dose: 25.0 mg/kg/injection, schedule: Q01DX005 (ip), vehicle: saline with Tween-80 93 % of control

CC1=NN(c2cccc(S(=O)(=O)O)c2)C(=O)C1N=Nc1cc(Cl)cc(S(=O)(=O)O)c1O.O.[Cr] (stereo not drawn)
inactive: [1] 114 % of control | [2] 108 % of control | [3] 115 % of control

Cc1ccc(S(=O)(=O)OCCN(CCOS(=O)(=O)c2ccc(C)cc2)S(=O)(=O)c2ccc(C)cc2)cc1
inactive: dose: 50.0 mg/kg/injection, schedule: Q01DX009 (ip), vehicle: Klucel (hydroxypropylcellulose) (HPC) 108 % of control | dose: 100.0 mg/kg/injection, schedule: Q01DX009 (ip), vehicle: Klucel (hydroxypropylcellulose) (HPC) 100 % of control | dose: 200.0 mg/kg/injection, schedule: Q01DX009 (ip), vehicle: Klucel (hydroxypropylcellulose) (HPC) 102 % of control | dose: 400.0 mg/kg/injection, schedule: Q01DX009 (ip), vehicle: Klucel (hydroxypropylcellulose) (HPC) 95 % of control
